Test results as given in patent publication US7060872B1, “Method for producing plants having modified canopy size or seedless fruit” (The State of Israel-Ministry of Agriculture & Rural …, priority 1998, dated 2006).
Entries after “also recorded” stand apart in the source; their conditions may differ.

Test system: transgenic tomato plants expressing the sps streptavidin construct
Experiment: External biotin application to sps transgenic tomato plants (reversal of degeneration)
Format: in vivo
From the text: The morphology and development of leaves of 6 weeks old plants obtained from non transgenic plant and transgenic tomato plants expressing the sps streptavidin construct and treated daily with biotin were also examined. FIG. 7 depicts the results of this study. […] This degeneration was to a lesser degree in the treated plants. Non transgenic plants both biotin treated and untreated appeared normal.
All of the plants treated with biotin remained green and vital throughout their development.

Compound: O=C(O)CCCC[C@@H]1SC[C@@H]2NC(=O)N[C@@H]21 [biotin]
- effect of daily biotin spraying after the initial chlorotic symptoms, on leaves (2 μM biotin, daily spray): development of normal leaves
- effect of daily biotin spraying after the initial necrotic lesion (2 μM biotin, daily spray): stopped or prevented further development of degenerative symptoms
- effect of daily biotin spraying after the initial flower buds, on fruit and seed (2 μM biotin, daily spray, plants with seedless fruit): development of normal fruit and the restoration of normal seed development
- effect of spraying biotin on the affected area (6 mg/liter biotin): stopped the degeneration process and plants' growth was restored
- effect of biotin application to T0 plants on germination of their seeds (seeds otherwise non-germinating (FIG. 6)): restored the germination; also recorded: normal germination
- effect of biotin solution on leaf development of a degenerated T0 plant (seen 10 or 20 days after application (FIG. 5)): restored normal leaf development
- tissue degeneration after a single biotin treatment (treated once after 3 weeks, 6 weeks old plants, versus untreated transgenic plants (FIG. 7)): lesser degree
